# Experimental data as given in ChEMBL document CHEMBL5209562, “Label-free detection of transporter activity via GPCR signalling in living cells: A case for SLC29A1, the equilibrative nucleoside transporter 1” (Sci Rep, 2019).
# Target: T1, Equilibrative nucleoside transporter 1 (Homo sapiens, UniProt Q99808)
# T1 sequence (Q99808 whole entry): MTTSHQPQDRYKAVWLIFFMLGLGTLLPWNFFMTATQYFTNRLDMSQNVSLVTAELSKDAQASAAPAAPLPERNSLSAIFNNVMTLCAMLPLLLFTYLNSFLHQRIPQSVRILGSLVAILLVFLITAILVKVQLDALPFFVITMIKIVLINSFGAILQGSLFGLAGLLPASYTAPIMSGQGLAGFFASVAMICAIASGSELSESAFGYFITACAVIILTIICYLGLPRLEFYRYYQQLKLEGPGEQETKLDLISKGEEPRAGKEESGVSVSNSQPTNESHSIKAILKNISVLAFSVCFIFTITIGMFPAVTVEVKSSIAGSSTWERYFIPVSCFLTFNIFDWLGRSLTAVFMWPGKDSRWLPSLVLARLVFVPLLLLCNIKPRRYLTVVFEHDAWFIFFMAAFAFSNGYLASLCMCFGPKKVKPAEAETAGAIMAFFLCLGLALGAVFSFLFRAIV
# Assay: Inhibition of the equilibrative nucleoside transporter (ENT1, SLC29A1) as assessed by GPCR-mediated changes in cell morphology using the impedance-based transporter activity through receptor activation (TRACT) assay (PubChem AID: 1745861)
# Format: functional, U2OS
smiles,measurement,value
NC(=O)C1CN(CCCCC(c2ccc(F)cc2)c2ccc(F)cc2)CCN1CC(=O)Nc1c(Cl)cc(N)cc1Cl (stereo unspecified) [DRAFLAZINE],IC50,5.3 nM
